Values of other authors in patent US6627614B1, “Sequential therapy comprising a 20(S)-camptothecin and an anthracycline” (priority 2002, dated 2003).
Values belong to the compound of their own block, whether it stands above or below them.

Legend:
[1] = system: nontumorigenic and tumorigenic human cells
[2] = system: human colon cancer xenografts
[3] = administered intravenously, patients
[4] = system: various types of cancer, including primary cancer and metastasis; details: patients, oral
[5] = not given; remark: listed apart in the source

SMILES: CC[C@@]1(O)C(=O)OCc2c1cc1n(c2=O)Cc2cc3ccccc3nc2-1 [20(S)-camptothecin]
effect on nontumorigenic cells ([1]; nontumorigenic human cells in vitro): cytostatic
effect on tumorigenic cells ([1]; tumorigenic human cells in vitro): cytotoxic

SMILES: CC[C@@]1(O)C(=O)OCc2c1cc1n(c2=O)Cc2cc3cc4c(cc3nc2-1)OCO4 [10,11 MD, 10,11-Methylendioxy-20(S)-Camptothecin]
anticancer activity against human colon cancer xenografts [2]: high anticancer activity

SMILES: CC[C@@]1(O)C(=O)OCc2c1cc1n(c2=O)Cc2cc3c(N)cccc3nc2-1 [9AC, 9-Amino-20(S)-Camptothecin]
anticancer activity against human colon cancer xenografts [2]: high anticancer activity

SMILES: CC[C@@](O)(C(=O)[O-])c1cc2n(c(=O)c1CO)Cc1cc3ccccc3nc1-2.[Na+] [20(S)-camptothecin Na^+, sodium salt of 20(S)-camptothecin]
potency in clinical trials [3]: low potency
toxicity in clinical trials [3]: high toxicity

SMILES: CC[C@@]1(O)C(=O)OCc2c1cc1n(c2=O)Cc2cc3c([N+](=O)[O-])cccc3nc2-1 [9NC, 9-nitrocamptothecin]
tumors known to regress after exposure [4]: breast carcinoma, ovarian carcinoma, cholangiocarcinoma, monomyelocytic leukemia, and pancreatic carcinoma
activity against human tumor xenograft models (human tumor xenografts; human tumor xenograft models): high activity
growth of human tumor xenografts (human tumor xenografts; immunodeficient nude mice): inhibited the growth
regression of established human tumors (human tumor xenografts; tumors established as xenografts in nude mice): induced regression

children with subclinical cardiac dysfunction (children, long term follow-up): ≤ 40%
crossing of the blood brain barrier ([5]; human, in vivo): does not cross
clearance in patients with impaired hepatic function [5]: reduced
dose appearing in the bile ([5]; in 5 days): Approximately 40%
initial distributive half-life ([5]; patients, intravenous injection): approximately 5.0 minutes
SMILES: COc1cccc2c1C(=O)c1c(O)c3c(c(O)c1C2=O)C[C@@](O)(C(=O)CO)C[C@@H]3OC1CC(N)C(O)C(C)O1 (stereo partly shown) [doxorubicin]
additional toxicity manifested by (patients): neutropenia, thrombocytopenia, anemia, confusion and hematuria
total cumulative dose at which irreversible cardiac toxicity may occur (patients): ~550 mg/M^2
systemic clearance in obese women ([5]; obese women with ideal body weight greater than 130%): significantly reduced

SMILES: COc1cccc2c1C(=O)c1c(O)c3c(c(O)c1C2=O)C[C@@](O)([C@@H](O)CO)C[C@@H]3O[C@H]1C[C@H](N)[C@H](O)[C@H](C)O1 [doxorubicinol]
clearance in patients with impaired hepatic function [5]: reduced
